The source of these data is patent publication US11077115B2, “Rorgamma modulators and uses thereof” (Genfit, priority 2017, dated 2021).

A value given as a limit tells only on which side of the number the result lay.

The IC50 is the point on the concentration scale where inhibition reaches its midpoint.

One assay concerns the target T1, human RORγt (Homo sapiens, UniProt P51449).
T1 sequence (P51449 1-497 isoform P51449-2): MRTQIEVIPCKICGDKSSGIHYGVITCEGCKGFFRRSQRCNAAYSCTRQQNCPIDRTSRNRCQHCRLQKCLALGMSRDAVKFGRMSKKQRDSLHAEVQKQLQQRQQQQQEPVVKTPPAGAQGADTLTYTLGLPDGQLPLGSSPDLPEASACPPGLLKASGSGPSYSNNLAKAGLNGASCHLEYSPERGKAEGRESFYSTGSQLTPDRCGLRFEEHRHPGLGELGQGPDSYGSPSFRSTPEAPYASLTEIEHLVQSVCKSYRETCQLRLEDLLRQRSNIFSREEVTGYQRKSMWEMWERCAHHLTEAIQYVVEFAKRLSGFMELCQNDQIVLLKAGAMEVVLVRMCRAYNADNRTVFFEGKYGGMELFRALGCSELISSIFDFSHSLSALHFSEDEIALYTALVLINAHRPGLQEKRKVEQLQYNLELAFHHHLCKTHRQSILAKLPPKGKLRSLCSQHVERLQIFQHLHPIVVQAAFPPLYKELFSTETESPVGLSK
The assay is described as follows: RORE Luciferase/RORγt transactivation assay (IL-17 promoter luciferase reporter in COS-7 cells). More on the design: V5-His (named only through the vector pcDNA3.1D/V5-His-TOPO); expressed in transfected cells; host or cells: COS-7 (monkey kidney). To be noted: RORγt activity inhibition, luciferase activity in transfected COS-7 cells, 20 h. The class given is cell-based. The method, then: It is well known that RORγ binds to a conserved non-coding sequence (CNS) enhancer element in the IL-17 promoter.
Culture medium was changed every 2 days.
The 4.3 Kb human IL-17 promoter containing the RORγ-specific CNS enhancer element was PCR amplified from human genomic DNA and cloned into a pGL3-TKLuc2Cp reporter plasmid.
The luciferase reporter plasmid and the RORγt overexpression plasmid were transfected into COS-7 cell line using 4 μL JetPEI™/μg of DNA. Briefly, 150 ng of DNA (ration 1/2 between RORE-Tk Luc2Cp and cDNA RORγt or the empty vector for the negative control) was served to transfect adherent COS-7 cells in a […] culture flask, in complete medium (see cos-7 cell line culture).
Cells were then detached (using trypsin) and washed by centrifugation at 300 g for 10 minutes. Cell pellet was resuspended in serum free/phenol red free DMEM and seeded in 384 well plates at a density of 10000 cells/well and then incubated for 4 h at 37° C.
Compounds were dissolved in 100% DMSO to obtain 10 mM stock solutions. For each compound, test concentrations were diluted in serum free/phenol red free DMEM using the Genesis Freedom 200™ (TECAN) and added to the cells to obtain a 0.3% DMSO final concentration (in a final volume of 40 μL per well).
The luciferase activity was then measured with 40 μL/well steady-Glo Luciferase assay system (Promega, Madison, Wis.) and after incubation at room temperature for 30 minutes. The luminescence was estimated using the Ultra384 reader (TECAN). Data were collected and analyzed using GraphPad Prism software (GraphPad Software V5.02, San Diego Calif. USA). IC50 in μM and E max in % were reported for each compound.

The target of assay [1] is T2, RORγt ligand-binding domain (RORγt-LBD) (Homo sapiens, UniProt P51449).
T2 construct: 20 nM recombinantly expressed RORγ-LBD fused to GST
T2 sequence (P51449 269-508 limits assumed): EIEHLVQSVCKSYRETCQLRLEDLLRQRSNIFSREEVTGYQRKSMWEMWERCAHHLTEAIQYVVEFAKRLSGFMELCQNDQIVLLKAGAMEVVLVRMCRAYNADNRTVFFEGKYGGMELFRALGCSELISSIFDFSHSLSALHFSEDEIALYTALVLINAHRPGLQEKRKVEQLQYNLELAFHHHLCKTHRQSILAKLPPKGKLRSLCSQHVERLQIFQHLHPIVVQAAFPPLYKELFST
Kind of assay: Time-resolved FRET (TR-FRET) RORγt coactivator assay (RIP140 peptide displacement). It counts as biochemical. To be noted: ligand-dependent coactivator-RORγt binding. The text has this: Time-resolved FRET (TR-FRET) RORγt coactivator assay was used to identify RORγ modulator compounds with ligand-dependent coactivator displacement. The assay uses a d2-labeled anti-GST antibody, synthetic N-terminally biotinylated peptide which is derived from nuclear receptor coactivator protein RIP140, and a RORγt ligand-binding domain (RORγt-LBD) that is tagged with glutathione-S-transferase (GST). The influence of compounds on the RORγ-peptide interaction relies on the binding dependent energy transfer from a donor to an acceptor fluorophor attached to the binding partner of interest. […] For reduction of background from compound fluorescence, TR-FRET method makes use of generic fluorophore labels and time resolved detection.
The assays were done in a final volume of 20 μl in a 384 well plate in a CHAPS buffer (2 mM CHAPS; 1 mM DTT, 2 mM EDTA; 0.1% BSA), containing 20 nM recombinantly expressed RORγ-LBD fused to GST, 30 nM N-terminally biotinylated peptide, 1 nM streptavidin-terbium conjugate and 20 nM d2 labeled-anti-GST. Test compounds were diluted using 10 mM stock solution. The range of the final compound concentrations used in this test was from 0.3 nM to 30 μM (logarithmic scale). DMSO content of the samples was kept at 1%. The assay was equilibrated for 2 hours in the dark at room temperature in 384 well plates (Falcon). The signal was detected by an Ultra384 reader (TECAN). […] Compounds that promote coactivator displacement induce a concentration-dependent decrease in time-resolved fluorescent signal. Data were collected and analyzed using GraphPad Prism software (GraphPad Software V5.02, San Diego Calif. USA). IC50 in μM and E max in % were reported for each compound.

For `Cc1ccc(C(NC(=O)C2(c3ccc(N4CCS(=O)(=O)CC4)cc3)CCC2)c2ccc(C)o2)c(C)c1` (centres unmarked) [Cpd. 41, N-[(2,4-dimethylphenyl)(5-methylfuran-2-yl)methyl]-1-[4-(1,1-dioxo-1-thiomorpholin-4-yl)phenyl]cyclobutane-1-carboxamide], the half-maximal inhibitory concentration (IC50) on human RORγt is 0.1 to 1 µM; in assay [1], less than 1 µM.

On to `Cc1ccc(C(NC(=O)Cc2cnc(N3CCS(=O)(=O)CC3)nc2C)c2ccc(C)o2)c(C)c1` (centres unmarked) [Cpd. 42, N-[(2,4-dimethylphenyl)(5-methylfuran-2-yl)methyl]-2-[2-(1,1-dioxo-1-thiomorpholin-4-yl)-4-methylpyrimidin-5-yl]acetamide], for which the IC50 (at human RORγt; in assay [1]) was 1 to 10 µM throughout.

With `Cc1ccc(C(NC(=O)Cc2ccc(O)c(N3CCS(=O)(=O)CC3)c2)c2ccc(C)o2)c(C)c1` (centres unmarked) [Cpd. 43, N-[(2,4-dimethylphenyl)(5-methylfuran-2-yl)methyl]-2-[3-(1,1-dioxo-1-thiomorpholin-4-yl)-4-hydroxyphenyl]acetamide], the figures for the IC50 (on human RORγt; in assay [1]) were 1 to 10 µM and less than 1 µM, respectively.

Consider `COc1ccc(C(NC(=O)C2(c3ccc(N4CCS(=O)(=O)CC4)cc3)CC2)c2ccc(C)o2)c(C)c1` (centres unmarked) [Cpd. 44, 1-[4-(1,1-dioxo-1-thiomorpholin-4-yl)phenyl]-N-[(4-methoxy-2-methylphenyl)(5-methylfuran-2-yl)methyl]cyclopropane-1-carboxamide], for which the IC50 was less than 0.1 µM against human RORγt and less than 1 µM in assay [1].

Turning to `COc1ccc(C(NC(=O)Cc2cnc(N3CCS(=O)(=O)CC3)nc2)c2ccc(C)o2)c(N2CCCCCC2)c1` (centres unmarked) [Cpd. 45, N-{[2-(azepan-1-yl)-4-methoxyphenyl](5-methylfuran-2-yl)methyl}-2-[2-(1,1-dioxo-1-thiomorpholin-4-yl)pyrimidin-5-yl]acetamide], the IC50 against human RORγt is 0.1 to 1 µM; in assay [1] it was less than 1 µM.

As to `Cc1ccc(C(NC(=O)Cc2ccc(N3CCS(=O)(=O)CC3)cn2)c2ccc(C)o2)c(N2CCCCC2)c1` (centres unmarked) [Cpd. 47, 2-[5-(1,1-dioxo-1-thiomorpholin-4-yl)pyridin-2-yl]-N-{[4-methyl-2-(piperidin-1-yl)phenyl](5-methylfuran-2-yl)methyl}acetamide], the IC50 against human RORγt was less than 0.1 µM; in assay [1] it was less than 1 µM.

Regarding `Cc1ccc(C(NC(=O)C2(c3ccc(N4CCS(=O)(=O)CC4)cc3)CCC2)c2ccc(C)o2)c(N2CCCCC2)c1` (centres unmarked) [Cpd. 55, 1-[4-(1,1-dioxo-1-thiomorpholin-4-yl)phenyl]-N-{[4-methyl-2-(piperidin-1-yl)phenyl](5-methylfuran-2-yl)methyl}cyclobutane-1-carboxamide], the IC50 (against human RORγt; in assay [1]) was 0.1 to 1 µM in each case.

Consider `Cc1ccc(C(NC(=O)C(C)(C)c2ccc(N3CCS(=O)(=O)CC3)cc2)c2ccc(C)o2)c(N2CCCCC2)c1` (centres unmarked) [Cpd. 56, 2-[4-(1,1-dioxo-1-thiomorpholin-4-yl)phenyl]-2-methyl-N-{[4-methyl-2-(piperidin-1-yl)phenyl](5-methylfuran-2-yl)methyl}propanamide], for which the IC50 (against human RORγt; in assay [1]) was 0.1 to 1 µM each time.

Turning to `Cc1ccc(C(NC(=O)C2(c3cccc(N4CCS(=O)(=O)CC4)c3)CC2)c2ccc(C)o2)c(N2CCCCC2)c1` (centres unmarked) [Cpd. 58, 1-[3-(1,1-dioxo-1-thiomorpholin-4-yl)phenyl]-N-{[4-methyl-2-(piperidin-1-yl)phenyl](5-methylfuran-2-yl)methyl}cyclopropane-1-carboxamide], the IC50 on human RORγt was 0.1 to 1 µM; in assay [1] it was less than 1 µM.

With `Cc1ccc(C(NC(=O)C2(c3ccc(N4CCS(=O)(=O)CC4)cc3)CC2)c2ccc(C)o2)c(C)c1` (centres unmarked) [Cpd. 64, N-[(2,4-dimethylphenyl)(5-methylfuran-2-yl)methyl]-1-[4-(1,1-dioxo-1-thiomorpholin-4-yl)phenyl]cyclopropane-1-carboxamide], the IC50 lay in the range of 0.1 to 1 µM at human RORγt and 1 to 10 µM in assay [1].

For `Cc1ccc(C(NC(=O)Cc2ncc(N3CCS(=O)(=O)CC3)cn2)c2ccc(C)o2)c(N2CCCCC2)c1` (centres unmarked) [Cpd. 65, 2-[5-(1,1-dioxo-1-thiomorpholin-4-yl)pyrimidin-2-yl]-N-{[4-methyl-2-(piperidin-1-yl)phenyl](5-methylfuran-2-yl)methyl}acetamide], the IC50 was less than 0.1 µM at human RORγt and less than 1 µM in assay [1].

As to `Cc1ccc(C(NC(=O)C2(c3ccc(N4CCS(=O)(=O)CC4)cc3)CC2)c2ccc(Cl)o2)cc1` (centres unmarked) [Cpd. 67, N-[(5-chlorofuran-2-yl)(4-methylphenyl)methyl]-1-[4-(1,1-dioxo-1-thiomorpholin-4-yl)phenyl]cyclopropane-1-carboxamide], the IC50 was less than 0.1 µM against human RORγt and less than 1 µM in assay [1].

For `Cc1ccc(C(NC(=O)C2(c3cccc(N4CCS(=O)(=O)CC4)c3)CC2)c2ccc(C)o2)c(C)c1` (centres unmarked) [Cpd. 68, N-[(2,4-dimethylphenyl)(5-methylfuran-2-yl)methyl]-1-[3-(1,1-dioxo-1-thiomorpholin-4-yl)phenyl]cyclopropane-1-carboxamide], the IC50 against human RORγt was 0.1 to 1 µM; in assay [1], less than 1 µM.
